Assay results from US20160376286A1, “Pyrimidin-4-one derivatives and their use in the tratement, amelioration or prevention of a viral disease” (priority 2011, published 2016).

Tested on: influenza A virus A/Aichi/2/68 (H3N2)
Experiment: Cytopathic effect (CPE) assay H3N2 in MDCK cells
Assay type: cell-based, influenza A virus (A/Aichi/2/68 (H3N2)); MDCK cells
Details: Influenza A virus, H3N2, MDCK, read-out: CPE H3N2 IC50 [μM]
Experimental: A possible measure of the […] antiviral activity of the compounds having the formula I or II is the CPE assay disclosed herein. […] In this connection, the reduction in the virus-mediated cytopathic effect (CPE) upon treatment with the compounds was calculated as follows: The cell viability of infected-treated and uninfected-treated cells was determined using an ATP-based cell viability assay (Promega). The response in relative luminescent units (RLU) of infected-untreated samples was subtracted from the response (RLU) of the infected-treated samples and then normalized to the viability of the corresponding uninfected sample resulting in % CPE reduction.
The influenza A virus (IAV) was obtained from American Tissue Culture Collection (A/Aichi/2/68 (H3N2); VR-547). Virus stocks were prepared by propagation of virus on Mardin-Darby canine kidney (MDCK; ATCC CCL-34) cells and infectious titres of virus stocks were determined by the 50% tissue culture infective dose (TCID50) analysis as described in Reed, L. J., and H. Muench. 1938, Am. J. Hyg. 27:493-497.
MDCK cells were seeded in 96-well plates at 2×10^4 cells/well using DMEM/Ham's F-12 (1:1) medium containing 10% foetal bovine serum (FBS), 2 mM L-glutamine and 1% antibiotics (all from PAA). Until infection the cells were incubated for 5 hrs at 37° C., 5.0% CO2 to form a -80% confluent monolayer on the bottom of the well. Each test compound was dissolved in DMSO and generally tested at 25 μM and 250 μM. In those cases where the compounds were not soluble at that concentration they were tested at the highest soluble concentration. The compounds were diluted in infection medium (DMEM/Ham's F-12 (1:1) containing 5 μg/ml trypsin, and 1% antibiotics) for a final plate well DMSO concentration of 1%. The virus stock was diluted in infection medium (DMEM/Ham's F-12 (1:1) containing 5 μg/m1Trypsin, 1% DMSO, and 1% antibiotics) to a theoretical multiplicity of infection (M01) of 0.05.
After removal of the culture medium and one washing step with PBS, virus and compound were added together to the cells. In the wells used for cytotoxicity determination (i.e. in the absence of viral infection), no virus suspension was added. Instead, infection medium was added. Each treatment was conducted in two replicates. After incubation at 37° C., 5% CO2 for 48 hrs, each well was observed microscopically for apparent cytotoxicity, precipitate formation, or other notable abnormalities. Then, cell viability was determined using
CellTiter-Glo luminescent cell viability assay (Promega). The supernatant was removed carefully and 65 μl of the reconstituted reagent were added to each well and incubated with gentle shaking for 15 min at room temperature. Then, 60 μl of the solution was transferred to an opaque plate and luminescence (RLU) was measured using Synergy HT plate reader (Biotek).
Relative cell viability values of uninfected-treated versus uninfected-untreated cells were used to evaluate cytotoxicity of the compounds. Substances with a relative viability below 80% at the tested concentration were regarded as cytotoxic and retested at lower concentrations.
Reduction in the virus-mediated cytopathic effect (CPE) upon treatment with the compounds was calculated as follows: The response (RLU) of infected-untreated samples was subtracted from the response (RLU) of the infected-treated samples and then normalized to the viability of the corresponding uninfected sample resulting in % CPE reduction.

SMILES	IC50 [µM]
Cc1c(-c2ccc(F)nc2F)sc2nc(N)[nH]c(=O)c12 [SAV-7621]	70

Same assay, conditions: activity conc 2

SMILES	CPE H3N2 reduction (%)
Cc1c(-c2ccccc2F)sc2nc(N)[nH]c(=O)c12 [SAV-7598]	21.3 3.7 11.4%
Cc1c(-c2ccc(F)cc2F)sc2nc(N)[nH]c(=O)c12 [SAV-7610]	−1.6%
Cc1c(-c2cc(C#N)ccc2Cl)sc2nc(N)[nH]c(=O)c12 [SAV-7617]	2 5.1%

Same assay, conditions: activity conc 2.5

SMILES	CPE H3N2 reduction (%)
Cc1ccc(-c2sc3nc(N)[nH]c(=O)c3c2C)cc1 [SAV-7585]	28.9

Same assay, conditions: activity conc 5

SMILES	CPE H3N2 reduction (%)
Cc1c(-c2ccccc2)sc2nc(N)[nH]c(=O)c12 [SAV-7475]	8.9
Cc1c(-c2cccc(C#N)c2)sc2nc(N)[nH]c(=O)c12 [SAV-7594]	14.5
Cc1c(-c2ccc(Cl)c(C(F)(F)F)c2)sc2nc(N)[nH]c(=O)c12 [SAV-7623]	1.9
Cc1c(-c2c(F)ccc(Cl)c2F)sc2nc(N)[nH]c(=O)c12 [SAV-7637]	1.5
Cc1c(-c2ccccc2)sc2nc(Nc3ccccc3)[nH]c(=O)c12 [SAV-7638]	8.7
Cc1c(-c2ccccc2)sc2nc(NC3CCCCC3)[nH]c(=O)c12 [SAV-7640]	−3.2

Same assay, conditions: activity conc 10

SMILES	CPE H3N2 reduction (%)
Nc1nc2sc(Cc3ccccc3)cc2c(=O)[nH]1 [SAV-7517]	39.3 13 −2.64%
Cc1c(-c2cccc(Cl)c2F)sc2nc(N)[nH]c(=O)c12 [SAV-7616]	68.7%

Same assay, conditions: activity conc 15

SMILES	CPE H3N2 reduction (%)
Cc1c(-c2ccncc2)sc2nc(N)[nH]c(=O)c12 [SAV-7586]	81.2

Same assay, conditions: activity conc 20

SMILES	CPE H3N2 reduction (%)
COc1ccc(-c2sc3nc(N)[nH]c(=O)c3c2C)cc1 [SAV-7575]	35.9 9.02 4%
Cc1c(-c2ccc(Cl)cc2)sc2nc(N)[nH]c(=O)c12 [SAV-7579]	21.4 11.3 0.27%
Cc1c(-c2ccc(Cl)c(C#N)c2)sc2nc(N)[nH]c(=O)c12 [SAV-7602]	67.9 1.7 35.1%
CC(c1ccccc1)c1cc2c(=O)[nH]c(N)nc2s1 (stereo not shown) [SAV-7604]	−4.7 6.4%
Cc1c(-c2cc(C#N)ccc2F)sc2nc(N)[nH]c(=O)c12 [SAV-7615]	59.2%

Same assay, conditions: activity conc 25

SMILES	CPE H3N2 reduction (%)
Cc1c(Cc2ccccc2)sc2nc(N)[nH]c(=O)c12 [SAV-7521]	64.7 6 33.6%
Cc1c(-c2ccc(F)nc2F)sc2nc(N)[nH]c(=O)c12 [SAV-7621]	14.3%
Cc1c(-c2ccc(Cl)c(C(=O)N(C)C)c2)sc2nc(N)[nH]c(=O)c12 [SAV-7626]	6.4 −4.6%

Same assay, conditions: activity conc 50 (μM)

SMILES	CPE H3N2 reduction (%)
N/C(=N\O)c1ccc(C(=O)NO)nc1	−4.8%
CON(C)C(=O)c1ccc2ccccc2n1	−1.2%
O=C(NOC(=O)c1cc(N2CCCCC2)ccn1)c1cc(N2CCCCC2)ccn1	29%
CCONC(=O)c1cc(NCC2CCN(Cc3ccccc3)CC2)ccn1.Cl.Cl	14.8%
Cc1cccc(C(=O)NOCc2ccccc2)n1	−2.7%
CCONC(=O)c1cccc(C)n1	−2.1%
COc1ccc2nc(C(=O)NOCc3ccccc3)ccc2c1	−1.9%
Cc1cccc(C(=O)N(C)OCc2ccccc2)n1	−2.3%
CCON(C)C(=O)c1cccc(C)n1	−1.9%
CN(OCc1ccccc1)C(=O)c1ccc(-c2ccccc2)cn1	−2.6%
O=C(c1cc2ccccc2cn1)N(O)Cc1ccccc1	34.2%
O=C(NO)c1cc2ccccc2cn1	94.3%
O=C(NO)c1ccc(N2CCCC2)cn1	−4.3%
Nc1ccccc1NC(=O)c1ccc(C(=O)NO)nc1	−5.53%
O=C(c1cc(C2=CC3CCC(C2)N3)ccn1)N(O)Cc1ccccc1 (stereo not shown)	5.49%
Cl.O=C(NO)c1cc(NS(=O)(=O)Cc2ccc(Cl)c(Cl)c2)ccn1	53.43%

SMILES	CPE H3N2 reduction (%)
Cl.O=C(NO)c1cc(NS(=O)(=O)Cc2cccc3cccnc23)ccn1	24.39%
Nc1nc2sc(-c3ccccc3)cc2c(=O)[nH]1 [SAV-7549]	65.5 −2.4 8.8%
Cc1c(-c2cccc(C(F)(F)F)c2)sc2nc(N)[nH]c(=O)c12 [SAV-7581]	87.8%
Cc1c(-c2ccccc2)sc2nc(NCCCO)[nH]c(=O)c12 [SAV-7582]	102.9 4.2 53.1%
Cc1c(-c2cccnc2)sc2nc(N)[nH]c(=O)c12 [SAV-7589]	63.1%
Cc1c(-c2ccc(F)cc2)sc2nc(N)[nH]c(=O)c12 [SAV-7601]	69.2 1.1 44.3%
Cc1c(C2=CCNCC2)sc2nc(N)[nH]c(=O)c12 [SAV-7614]	190 10.6%
Cc1c(-c2ccc(Cl)cc2F)sc2nc(N)[nH]c(=O)c12 [SAV-7618]	77.4%
Cc1cc(-c2sc3nc(N)[nH]c(=O)c3c2C)ccc1Cl [SAV-7620]	57.8%
Cc1c(-c2cccc(C#N)c2F)sc2nc(N)[nH]c(=O)c12 [SAV-7627]	71.2%
Cc1c(-c2ccc(F)c(C#N)c2F)sc2nc(N)[nH]c(=O)c12 [SAV-7628]	84.3%
Cc1c(-c2cccc(CN(C)C)c2)sc2nc(N)[nH]c(=O)c12 [SAV-7629]	38.3%
Cc1c(-c2ccc(Cl)nc2)sc2nc(N)[nH]c(=O)c12 [SAV-7632]	0.75 53%
Cc1c(-c2ccnc(Cl)c2F)sc2nc(N)[nH]c(=O)c12 [SAV-7633]	63.1%
O=C(NO)c1cc(NS(=O)(=O)Cc2ccccc2)ccn1 [drawing 243]	5.1%

Tested on: not given
Experiment: not given
Details: not given

SMILES	melting point [°C]
O=C(NO)c1cc(NS(=O)(=O)Cc2ccccc2)ccn1	187 to 192
Cc1c(-c2cnn(C)c2)sc2nc(N)[nH]c(=O)c12	335 to 345
CCONC(=O)c1ccc(-c2cccc(CN(C)CCCc3ccccc3)c2)cn1.Cl (hydrate or solvate)	50 to 55

Target: PB2 cap binding domain (CBD) of an avian H5N1 influenza virus (Influenza A virus, UniProt Q9Q0V1)
Experiment: biochemical
Details: not given

Sequence of PB2 cap binding domain (CBD) of an avian H5N1 influenza virus (Q9Q0V1 318-483 limits assumed): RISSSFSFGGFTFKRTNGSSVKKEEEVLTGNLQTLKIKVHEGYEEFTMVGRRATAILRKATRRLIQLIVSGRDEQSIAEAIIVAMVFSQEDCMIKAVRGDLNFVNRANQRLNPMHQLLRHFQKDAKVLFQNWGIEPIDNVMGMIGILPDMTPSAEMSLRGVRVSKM

SMILES	Biacore Binding (RU)	Kd [µM]
Cc1c(-c2cccc(Cl)c2)sc2nc(N)[nH]c(=O)c12 [SAV-7580]	21.2 89.8 11 8.9 RU	
Cc1c(-c2ccccc2)sc2nc(NCCN(C)C)[nH]c(=O)c12 [SAV-7583]	77.8 4.8 66 RU	66
Cc1c(-c2ccccc2Cl)sc2nc(N)[nH]c(=O)c12 [SAV-7596]	11 29.6 13.6 RU	11
Cc1c(-c2cnn(C)c2)sc2nc(N)[nH]c(=O)c12 [SAV-7603]		4.2
Cc1c(-c2cccc(F)c2)sc2nc(N)[nH]c(=O)c12 [SAV-7606]		6
Nc1nc2sc(-c3ccccc3)c(Br)c2c(=O)[nH]1 [SAV-7631]		0.86
